Test results published in patent US20170121293A1, “PROCESS FOR PREPARING A NOVEL CRYSTALLINE FORM OF METSULFURON-METHYL AND USE OF THE SAME” (ROTAM AGROCHEM INTERNATIONAL COMPANY LIMITED, priority 2015, published 2017).
Where two headings read alike, the source gives them in different places.

What was measured:
weeds = test: Activity in controlling weeds; conditions: in vivo
Viscosity when dissolved = type: physicochemical
[1] = type: physicochemical; conditions: for Concentration measured by HPLC after treatment: pH 7 buffer, test temperature e.g. 20° C.
Experimental: A stock pH 7 buffer solution was prepared by adding aqueous sodium hydroxide solution (0.1 M, 145 mL) to aqueous potassium dihydrogen phosphate solution (0.1 M, 250 mL), and then adding sufficient distilled water to adjust the final volume to 500 mL. At least 1 time and up to about 5 times the amount of metsulfuron-methyl needed for saturation was added to a mixing vessel containing stock buffer solution at the test temperature (e.g., 20° C.). The mixture was magnetically stirred in the dark while being maintained at the test temperature. Samples were periodically removed for analysis. The samples were centrifuged using a high speed, temperature-controlled centrifuge at the test temperature for about 20 minutes at >12000 G to remove suspended particles. An aliquot of each supernatant was taken for analysis. The concentration of metsulfuron-methyl in the supernatant was determined by a high pressure liquid chromatography (HPLC) with a reversed phase chromatography column and UV detection. The method should include development of best-fit calibration curves based on at least three standards using linear regression analysis Samples were successively withdrawn from the mixing vessel and analyzed until three successive samples show little or no variation in concentration. The test is preferably replicated to ensure accuracy.

[2] = Cleanout test (residue in polyethylene bottles extracted with acetonitrile); type: physicochemical; conditions: dispersed in tap water, stood overnight, lower = more effective cleanout
Experimental: The test was conducted by dispersing in water a sample to produce a concentration that is normally used when applying the herbicide: 25% metsulfuron-methyl. The sample was added to tap water (300 mL) in a 400 mL beaker and magnetically stirred for 2 minutes. The mixture was then stirred for 2 minutes, whereupon the resulting dispersion was dispensed in three 100 mL aliquots to 4-oz (118 mL) polyethylene bottles. The bottles were capped, inverted twice and allowed to stand overnight.
After standing overnight, each individual bottle was inverted twice and the liquid contents were then poured out. Tap water (10 mL) was added and the bottle was inverted until all sediment was re-suspended, whereupon the contents were poured out. Tap water (100 mL) was added and the bottle was inverted twice and then allowed to stand undisturbed for 10 minutes. The bottle was inverted twice more and the contents were poured out. Acetonitrile (10 mL) was added to the bottle to extract any remaining material. The acetonitrile solution was analyzed by reversed-phase liquid chromatography with UV detection. The cleanout rating (the concentration of metsulfuron-methyl herbicide in the acetonitrile solution) is reported in % in Table 6 below.

[3] = OD formulation, original concentration 40%
[4] = SG formulation, original concentration 25%
[5] = WG formulation, original concentration 25%

Compound | Activity in controlling weeds (weeds) | Viscosity (in words) (Viscosity when dissolved; listed as crystalline modification I of metsulfuron-methyl) | Solubility (in words) [1] | Concentration measured by HPLC after treatment [1, 3] | Concentration measured by HPLC after treatment [1, 4] | Concentration measured by HPLC after treatment [1, 5] | Cleanout rating (concentration of metsulfuron-methyl in the acetonitrile solution) ([2]; OD formulation) | Cleanout rating (concentration of metsulfuron-methyl in the acetonitrile solution) ([2]; SG formulation) | Cleanout rating (concentration of metsulfuron-methyl in the acetonitrile solution) ([2]; WG formulation) | Viscosity (in words) (Viscosity when dissolved; listed as metsulfuron-methyl in amorphous state)
COC(=O)c1ccccc1S(=O)(=O)NC(=O)Nc1nc(C)nc(OC)n1 [Metsulfuron-methyl, crystalline modification I] [methyl 2-(4-methoxy-6-methyl-1,3,5-triazin-2-ylcarbamoylsulfamoyl)benzoate] | active in controlling weeds | significant decrease | significant increase | 35% | 24.9% | 23% | 5% | 0.1% | 2% | –
COC(=O)c1ccccc1S(=O)(=O)NC(=O)Nc1nc(C)nc(OC)n1 [Amorphous metsulfuron-methyl, methyl 2-[[[[(4-methoxy-6-methyl-1,3,5-triazin-2-yl)amino]carbonyl]amino]sulfonyl]benzoate, reference compound] | – | – | – | 14% | 15% | 12% | 26% | 10% | 13% | highly viscous
